Entries after “also recorded” stand apart in the source; their conditions may differ. Bridges are numbered along the chain shown (N, C = ends).
Columns and labels:
PC12 cells = assay: Toxicity to PC12 cells; type: cell-based, rat
p75^NTR = assay: 125I-BDNF binding to p75NTR; conditions: 100 μM Zn2+, n = 3; 120 min
Description: Full length (1-118) mouse NGF purified by HPLC from 2.5S NGF (purity greater than 95%) was obtained from Cedarlane Laboratories (Toronto, Ont). The iodination of NGF was performed as previously described (Sutter, A, Riopelle, R. J., Harris-Warrick, R. M. & Shooter, E. M. Nerve growth factor receptors. J. Biol. Chem. 254, 5972-5982 (1979)). […] PC12 cells were grown in RPMI with 10% heat inactivated donor horse serum and 5% fetal calf serum. Each data point was set up in a single tube containing ^125 I-NGF (at the required concentration), 400,000 cells (for a final call concentration of 10^6 /ml), BDNF (at 40 nM for TrkA binding) and NGF (at 10 nM for non-specific binding) as required. The tubes were incubated for 2 hr at 4° C. and 100 μl aliquots (providing triplicate data points for each sample) were transferred to 400 μl microcentrifuges containing 200 μl of 10% glycerol in HKR. Tubes were centrifuged for 2 minutes at 5,000 rpm, the tip containing the cell pellet cut off and radioactivity bound to the cells was determined.
(§1) Human recombinant BDNF and human recombinant NT-3 were obtained from Alomone Laboratories (Israel). The iodination, crosslinking, and binding experiments using BDNF and NT-3 were performed using the methods described above for NGF. Neurite outgrowth assays were performed as described in the presence of 4.0 nM NT-3 or 8.0 nM BDNF.

DRG neurons = assay: NT-3-dependent neurite outgrowth of DRG neurons; type: cell-based, chick; conditions: n = 8
Description: Dissosiated cells enriched for sensory neurons were prepared from ED8 chick DRG as described (Dostaler, S. M. et al. Characterization of a distinctive motif of the low molecular weight neurotrophin receptor that modulates NGF-mediated neurite growth. Eur. J. Neurosci. 8, 870-879 (1996)). Neurons were seeded at a density of 800-1000 cells/well in Ham's F-12 containing 5% FCS and NGF at 10 pM into wells of Terasaki plates treated with polyysine. The cells were incubated with the indicated additives at 37° C. in a 5% CO2 atmosphere. The cells on the entire lower horizontal surface of the well were scored for neurite growth at 18-20 hours using an inverted microscope fitted with phase contrast optics. A neurite was scored if its caliber from the origin to terminal was constant and its length was equal to or greater than 1.5 cell body diameters. Neurite growth was corrected for background (no NGF).
as §1

[1] = test system: dorsal root ganglion (DRG) neurons; assay: NGF-dependent neurite growth of ED8 chick DRG neurons (FIG. 6, Terasaki plates); type: cell-based
Description: FIG. 6 is a graph showing the ability of R11 to inhibit the activity of NGF in vitro using a biological assay system. […] Dissociated cells enriched for sensory neurons were prepared from embryonic day 8 (ED8) chick dorsal root ganglion (DRG) as described (Sutter et al., J. Biol. Chem. 254: 5972-5982 (1979)). Neurons were seed into wells of Terasaki plates treated sequentially with poly-D-lysine and laminin at a density of 800-1000 cells/well in "synthetic" Dulbecco's modified Eagle medium (Bottenstein et al., Proc. Natl. Acad. Sci. USA 76: 514-517 (1979)) containing 1% fetal calf serum and NGF at […]. The cells were incubated with the additives indicated at 37° C. in a 5% CO2 atmosphere At 18-20 hours, the cells were fixed in 4% formaldehyde in phosphate-buffered saline and scored for neurite growth. The cells on the entire lower horizontal surface of the well were counted using an inverted microscope fitted with phase contrast optics. A neurite was scored if its caliber from origin to terminal was constant and its length was equal to or greater than 1.5 cell body diameters. Neurite growth was corrected for background (no NGF) growth in the presence and absence of peptide.
Such a profile is not typical of a competitive inhibitor. That is, a different dose response profile would be expected if R11 were simply competing with NGF for binding to a receptor. Neither of the less constrained synthetic Intermediates of R11, i.e., R11 (linear) or R11 (monocyclic), was as effective in blocking NGF-dependent neurite growth concentrations up to 200 μM.

[Zn+2] [Zn^2+]
Toxicity (PC12 cell viability) (PC12 cells; 100 μM): 97 ± 11 % control
Toxicity to PC12 cells (PC12 cells; in presence of serum, up to 100 μM): no loss in cell viability; also recorded: not toxic
% Maximum p75NTR binding, 125I-BDNF (p75^NTR): 10.0 ± 4.5 % Maximum binding
Neurite Outgrowth, NT-3 (4.0 nM) (DRG neurons; 30 μM Zn2+): 79.9 ± 13.8 % Maximum process bearing neur
Neurite Outgrowth, NT-3 (4.0 nM) (DRG neurons; 50 μM Zn2+): 18.4 ± 9.6 % Maximum process bearing neur

NH2 -Cys-Gly-Ser-Glu-Val-Pro-Asn-Ser-Ala-Arg-Cys-Cys-Val-Cys-OH (H-CGSEVPNSARCCVC-OH; disulfide 1-14, 11-12) [R11, bicyclic peptide of NGF residues 68-58/108-110, two disulfide bonds]
Block of NGF-mediated neurite growth ([1]; 100 μM): 70%
IC50 ([1]; ED8 chick DRG neurons, FIG. 6, read-out: IC50, inhibition of NGF-dependent neurite growth): 10 µM
Block of NGF-mediated neurite growth ([1]; concentration similar to 200 μM): virtually all

Source: patent US6291247A, “Methods of screening for factors that disrupt neurotrophin conformation and reduce neurotrophin biological activity” (priority 1996, dated 2001)
